Common to all, as to assay: NCI-60 cell line screen, 48 h
Test [1] has as its system IGROV1 ovarian.
The subject of test [2] is MCF7 breast.
Test [3] has as its system K-562 leukemia.
For test [4], the system named is CCRF-CEM leukemia.
Test [5] has as its system BT-549 breast.
Test [6] concerns SF-539 CNS.
Test [7] has as its system RXF 393 renal.
The subject of test [8] is NCI-H460 lung.
Test [9] deals with A498 renal.
For test [10], the system named is LOX IMVI melanoma.

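The compound was tested at five concentrations on cells cultured in 96-well plates, with a 48-hour exposure period. GI50: concentration for 50% inhibition of growth. The concentration for full growth arrest is given as TGI.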

Consider `CC(=O)NNc1nc(C)c(C(/C=C/c2ccc([N+](=O)[O-])cc2)=N/NC(N)=O)s1`, for which the TGI in [1], in test [2], in test [3], in test [4], in test [5] and in test [6] was more than 100 µM throughout. In addition, the TGI in test [7], in [8], in [9] and in [10] was more than 100 µM throughout.
For `O=C1CCCCC/C1=C\c1cccc([N+](=O)[O-])c1`, the TGI in test [1] is 50.4 µM; in test [2], more than 100 µM; in test [3] it was more than 100 µM; in [4], 44.2 µM; in test [5], 72.8 µM; in test [6], 48.7 µM. The TGI was 93.1 µM in [7], 67.9 µM in test [8] and more than 100 µM in test [9].
Consider `N/C(=N\NC(=O)c1nc2ccccc2s1)c1ccccn1`, for which the TGI in test [1] is more than 100 µM; in test [2], more than 63.7 µM; in test [3], more than 77.8 µM; in test [4] it was more than 45.6 µM; in [5] it was more than 100 µM; in test [6] it was 15.6 µM. For the same molecule, the TGI in test [7] was more than 69 µM; in [8], 17.9 µM; in test [9], 36.1 µM; in test [10], more than 100 µM.
With `CCCc1n[nH]c(=O)n1N1C(=O)C=CC1=O`, the TGI in test [1], in [2], in [3], in test [4], in [5] and in test [6] was more than 100 µM throughout. Besides, the TGI in test [7], in test [8] and in test [9] was more than 100 µM each time.
Consider `N#CCCN(CCC#N)c1ccc(/C=C2\SC(=S)NC2=O)cc1`, for which the TGI in [1] was more than 100 µM; in test [2], more than 100 µM; in test [3] it was more than 100 µM; in test [4] it was more than 100 µM; in test [5], 84.3 µM; in test [6] it was more than 100 µM. The TGI in test [7], in test [8], in test [9] and in [10] was more than 100 µM each time.
`CC(=O)OC12CC(C(F)(F)F)(C(F)(F)F)OC1(OC(C)=O)CC(C(F)(F)F)(C(F)(F)F)O2` (stereo unspecified): the TGI in test [1] was more than 100 µM; in [2], 3.73 µM; in test [3], more than 100 µM; in test [4] it was more than 100 µM; in test [5] it was more than 100 µM; in test [6] it was 8.48 µM. Moreover, the TGI is 77.7 µM in test [7], more than 100 µM in [8], 8.57 µM in test [9] and 34.9 µM in test [10].
With `COCCOC(C)C(=O)C(O)S(=O)(=O)O` (stereo unspecified), the TGI in [1], in test [2], in test [3], in [4], in test [5] and in test [6] was more than 100 µM in each case. The TGI in test [7], in test [8] and in test [9] was more than 100 µM in each case.
In the case of `O=C(N/N=C\c1cccs1)c1ccncc1`, the TGI in test [1], in [2], in test [3], in test [4], in test [5] and in [6] was more than 100 µM each time. For the same molecule, the TGI in test [7], in test [8] and in test [9] was more than 100 µM throughout.
For the molecule `COC(=O)[C@H]1[C@@H](O)[C@@]2(O)c3c(OC)cc(OC)cc3O[C@@]2(c2ccc3c(c2)OCO3)[C@@H]1c1ccccc1`, the TGI in [1] is 0.666 µM; in [2], 0.0618 µM; in test [4], more than 50 µM; in [5], more than 50 µM; in test [6], 0.0279 µM; in [9], more than 50 µM. In [10], this molecule showed a TGI of 0.014 µM.
On to `N/C(=N\S(=O)(=O)c1ccc(-c2ccccn2)s1)Nc1ccc(Cl)cc1`, for which the TGI in [1] turned out to be 34.1 µM; in test [2], 34.4 µM; in test [3], 66.2 µM; in test [5], 32.6 µM; in test [6], 29.7 µM; in test [7], 35.3 µM. For the same molecule, the TGI came out at 34.8 µM in [8], 25.8 µM in [9] and 33.5 µM in test [10].
For the molecule `C/C(=N/NC(=S)N(C)C)c1ccccc1O`, the TGI in test [1] was more than 100 µM; in test [2], more than 40.4 µM; in test [3] it was more than 100 µM; in [4], 21 µM; in test [5], more than 100 µM; in test [6], 50.3 µM. Further, the TGI in [7] is more than 100 µM; in test [8], 30.1 µM; in test [9], 97.9 µM; in test [10], more than 75.1 µM.
On to `C[C@@H](NC(=O)[C@@H]1C[C@]1(C)CO)c1cccc2ccccc12`, for which the TGI in test [1], in [2], in [3], in [4], in [5] and in test [7] was more than 100 µM in each case. Moreover, the TGI in test [8] and in test [9] was more than 100 µM throughout.
Take `CCOC(=O)C1(C#N)C2(C#N)C(N)=NC(ON=C(C)C)(ON=C(C)C)C12C#N` (stereo unspecified): the TGI in [1], in test [2], in test [3], in test [4], in [5] and in [7] was more than 100 µM in each case. The TGI in [8], in test [9] and in [10] was more than 100 µM each time.
As for `CCCCC(=C=C(C)CO)C1CCCN1C(=O)OC(C)(C)C` (stereo unspecified), the TGI is 43.6 µM in test [1]; 43.5 µM in test [2]; 38.4 µM in test [3]; 33.2 µM in [4]; 31.8 µM in test [5]; 34.5 µM in test [6]. In addition, the TGI in test [7] came to 29.4 µM; in test [8], 31.8 µM; in test [10] it was 30.4 µM.
`Fc1ccc2[nH]cc(-c3nc(-c4c[nH]c5ccncc45)cs3)c2c1`: the GI50 is 1.89 µM in test [4]; 1.65 µM in test [5]; 1.52 µM in [6]; 1.48 µM in test [7]; 1.98 µM in test [9]. Besides, the TGI amounted to 4.65 µM in test [4]; 3.07 µM in test [5]; 2.88 µM in test [6]; 2.86 µM in [7]; 3.43 µM in test [9].
Regarding `CSc1c2c(C)n[nH]c2nn1-c1ccccc1`, the TGI in test [2], in test [3], in test [4], in test [5], in [6] and in [7] was more than 100 µM each time. Moreover, the TGI in test [8], in test [9] and in test [10] was more than 100 µM in each case.
Turning to `Clc1ccc2nc3n[nH]c(Cl)c3nc2c1`, the TGI in test [2], in test [3], in [5], in [6], in [7] and in test [8] was more than 100 µM each time. Besides, the TGI in test [9] is more than 100 µM.
As to `Cc1nc2ccccc2c(=O)n1NC(=O)c1ccccc1[N+](=O)[O-]`, the TGI in test [1], in test [2], in test [3], in test [4], in test [5] and in test [6] was more than 100 µM each time. The TGI in [8], in [9] and in [10] was more than 100 µM each time.
With `O=C(OCC1CCCN2CCCCC12)c1cccnc1` (stereo unspecified), the TGI in [2], in test [3], in test [4], in [5], in [6] and in [7] was more than 100 µM each time. In addition, the TGI in test [8], in test [9] and in test [10] was more than 100 µM in each case.
With `C/C(=N\NC(=O)CC#N)C(CN1CCCCC1)C(c1ccccc1)c1c(O)c2ccccc2oc1=O` (stereo unspecified), the TGI in test [1] is more than 100 µM; in test [2] it was 40.6 µM; in test [3] it was more than 100 µM; in [4], 73.5 µM; in [5], more than 100 µM; in test [6] it was more than 100 µM. The TGI stood at 82.5 µM in test [9] and 40.1 µM in test [10].
For the molecule `CNC(=O)c1cc2nc3ccccc3c(=O)n2c2ccccc12`, the TGI in test [1], in test [2], in test [3], in [4], in [5] and in test [6] was more than 10 µM each time. The TGI in [7], in test [9] and in [10] was more than 10 µM throughout.
`C=CCOC(=O)c1c(C)n([O-])c2cc(Cl)c(Cl)cc2[n+]1=O`: the TGI in test [1] is 22.8 µM; in test [2], 60.8 µM; in [3] it was more than 100 µM; in [4] it was 45.9 µM; in [5] it was 75.3 µM; in [6] it was 45.7 µM. Further, the TGI came to 42.3 µM in test [8], 62.6 µM in test [9] and 32.9 µM in test [10].
As to `C=C1C(=O)[C@]23C[C@H]1C[C@@H](O)[C@H]2[C@]1(COC3=O)[C@@H](OC(C)=O)CC[C@@](C)(COC(C)=O)[C@H]1C=O`, the TGI in test [1] was more than 50 µM; in test [2], more than 50 µM; in [3], 14.1 µM; in [4] it was 15.1 µM; in [5], more than 50 µM; in [7], more than 50 µM. In addition, the TGI in test [8], in test [9] and in test [10] was more than 50 µM throughout.
For the molecule `CC(C)NCC(O)c1ccc(O)c2ncccc12` (stereo unspecified), the TGI in test [1], in test [2], in [3], in test [5], in [6] and in [7] was more than 100 µM in each case. Moreover, the TGI in test [8], in test [9] and in test [10] was more than 100 µM throughout.
On to `O=C(/C=C/c1ccc2c(c1)OCO2)NCCc1ccco1`, for which the TGI in test [1], in [2], in test [3], in test [4], in [5] and in test [6] was more than 100 µM in each case. Moreover, the TGI in test [7], in test [8] and in test [10] was more than 100 µM each time.
For `COC(=O)[C@@H]1[C@H](O)CCC2=C(CC(=O)c3ccoc3)[C@H](C)CC[C@]21C`, the TGI in [1], in test [2], in test [3], in test [5], in test [6] and in test [7] was more than 50 µM throughout. In addition, the TGI in [8], in test [9] and in test [10] was more than 50 µM each time.
For the molecule `CCCCOc1c(C(=O)O)cc(Br)cc1C(=O)O`, the TGI in test [1], in test [2], in test [3], in test [5], in test [6] and in [7] was more than 100 µM each time. In addition, the TGI in test [8], in [9] and in [10] was more than 100 µM throughout.
Take `COc1ccc(C(=O)c2c(-c3ccccc3NC(=O)C(F)(F)F)[nH]c3ccccc23)cc1`: the TGI in [1] was 24.3 µM; in test [2], 17.2 µM; in [3], 32.7 µM; in [4], 15.2 µM; in test [5] it was 29 µM; in test [6], 4.41 µM. Also, the values for the TGI in test [8], in test [9] and in test [10] were 16.4 µM, 4.7 µM and 16.1 µM, respectively.
As to `NC(=S)Nc1ccc2c(c1)oc1ccccc12`, the TGI in test [1], in test [2], in test [3], in test [4], in test [5] and in [7] was more than 100 µM each time. The TGI in test [8], in [9] and in [10] was more than 100 µM in each case.

For the origin of these results see PubChem BioAssay (NCI).
